Measurements from ChEMBL document CHEMBL3885881, “DrugMatrix”.

Legend:
[1] = organism: Rattus norvegicus; assay: DrugMatrix - Regimen: Daily Repeat; assay type: toxicity, organism-based, Sprague-Dawley; set-up: regimen Daily Repeat, gender Male, age 6-8 weeks; settings: in vivo, po, […], route oral GAVAGE, time 14 day, vehicle 100 % WATER
[2] = organism: Rattus norvegicus; assay type: toxicity, organism-based, Sprague-Dawley; settings: in vivo, po, 24 h, route oral GAVAGE, time 1 day, vehicle 100 % WATER
Description: DrugMatrix - Regimen: Single

[3] = 0 mg/kg, tissue Blood, dose level Control
[4] = 0 mg/kg, tissue Plasma, dose level Control
[5] = tissue Blood, dose 2.5 mg/Kg, dose level High
[6] = tissue Plasma, dose 2.5 mg/Kg, dose level High
[7] = 0 mg/kg, vehicle control, tissue Blood, dose level Control
[8] = 0 mg/kg, vehicle control, tissue Plasma, dose level Control
[9] = […], tissue Blood, dose 2.5 mg/Kg, dose level High
[10] = […], tissue Plasma, dose 2.5 mg/Kg, dose level High

## MERCURIC CHLORIDE
[1]; [3]
  ABSOLUTE BASOPHIL: 0 CELLS/uL
  ABSOLUTE EOSINOPHIL: 117.17 CELLS/uL
  ABSOLUTE MONOCYTE: 419 CELLS/uL
  ABSOLUTE SEGMENTED NEUTROPHIL: 2139.67 CELLS/uL
  BASOPHIL: 0%
  EOSINOPHIL: 0.67%
  ERYTHROCYTE COUNT: 6.61 x10E6/uL
  HEMATOCRIT: 37.58%
  HEMOGLOBIN: 13.8 G/DL
  LEUKOCYTE COUNT: 15.45 x10E3/uL
  LYMPHOCYTE: 83%
  MEAN CORPUSCULAR HEMOGLOBIN: 20.87 pg
  MEAN CORPUSCULAR HEMOGLOBIN CONCENTRATION: 36.72 G/DL
  MEAN CORPUSCULAR VOLUME: 56.85 fL
  MONOCYTE: 2.67%
  NEUTROPHIL: 13.67%
  NUCLEATED RED BLOOD CELLS: 0 /100WBC
  PLATELET COUNT: 1108.33 x10E3/uL
[1]; [4]
  ALANINE AMINOTRANSFERASE: 56.83 u/L
  ALKALINE PHOSPHATASE: 354.33 u/L
  ASPARTATE AMINOTRANSFERASE: 93.33 u/L
  BLOOD UREA NITROGEN: 16.67 mg/dL
  CARBON DIOXIDE: 27.83 mmol/L
  CHOLESTEROL: 62.33 mg/dL
  CREATININE: 0.2 mg/dL
  GLUCOSE: 137 mg/dL
  LACTATE DEHYDROGENASE: 407 u/L
  LIPASE: 10.83 u/L
  PHOSPHORUS: 11.45 mg/dL
  POTASSIUM: 6.51 MEQ/L
  SODIUM: 145.57 MEQ/L
  TOTAL BILIRUBIN: 0.2 mg/dL
  TOTAL PROTEIN: 6.3 G/DL
[1]; [5]
  ABSOLUTE BASOPHIL: 0 CELLS/uL
  ABSOLUTE EOSINOPHIL: 269 CELLS/uL
  ABSOLUTE LYMPHOCYTE: 14982 CELLS/uL
  ABSOLUTE MONOCYTE: 560.2 CELLS/uL
  ABSOLUTE SEGMENTED NEUTROPHIL: 2068.8 CELLS/uL
  BASOPHIL: 0%
  EOSINOPHIL: 1.6%
  ERYTHROCYTE COUNT: 6.64 x10E6/uL
  HEMATOCRIT: 37.88%
  LEUKOCYTE COUNT: 17.88 x10E3/uL
  LYMPHOCYTE: 83.6%
  MEAN CORPUSCULAR HEMOGLOBIN: 20.94 pg
  MEAN CORPUSCULAR HEMOGLOBIN CONCENTRATION: 36.7 G/DL
  MEAN CORPUSCULAR VOLUME: 57.06 fL
  MONOCYTE: 3.2%
  NEUTROPHIL: 11.6%
  NUCLEATED RED BLOOD CELLS: 0 /100WBC
  PLATELET COUNT: 1034.6 x10E3/uL
[1]; [6]
  ALANINE AMINOTRANSFERASE: 59.6 u/L
  ALKALINE PHOSPHATASE: 375 u/L
  ASPARTATE AMINOTRANSFERASE: 95.2 u/L
  BLOOD UREA NITROGEN: 17 mg/dL
  CARBON DIOXIDE: 23.4 mmol/L
  CHOLESTEROL: 68 mg/dL
  CREATININE: 0.22 mg/dL
  GLUCOSE: 151.4 mg/dL
  LACTATE DEHYDROGENASE: 417.8 u/L
  LIPASE: 10.2 u/L
  PHOSPHORUS: 11.36 mg/dL
  POTASSIUM: 6.37 MEQ/L
  SODIUM: 147.12 MEQ/L
  TOTAL BILIRUBIN: 0.18 mg/dL
  TOTAL PROTEIN: 6.74 G/DL
  URIC ACID: 2.42 mg/dL
[2]; [7]
  ABSOLUTE EOSINOPHIL: 91.83 CELLS/uL
  ABSOLUTE LYMPHOCYTE: 13862.33 CELLS/uL
  ABSOLUTE MONOCYTE: 437.83 CELLS/uL
  ABSOLUTE SEGMENTED NEUTROPHIL: 1358 CELLS/uL
  BASOPHIL: 0%
  EOSINOPHIL: 0.5%
  ERYTHROCYTE COUNT: 5.12 x10E6/uL
  HEMATOCRIT: 31.77%
  HEMOGLOBIN: 11.8 G/DL
  LEUKOCYTE COUNT: 15.75 x10E3/uL
  MEAN CORPUSCULAR HEMOGLOBIN: 23.07 pg
  MEAN CORPUSCULAR HEMOGLOBIN CONCENTRATION: 37.17 G/DL
  MONOCYTE: 2.67%
  NEUTROPHIL: 8.5%
  NUCLEATED RED BLOOD CELLS: 0 /100WBC
  PLATELET COUNT: 1113.83 x10E3/uL
[2]; [8]
  ALANINE AMINOTRANSFERASE: 45.5 u/L
  ALKALINE PHOSPHATASE: 343.83 u/L
  ASPARTATE AMINOTRANSFERASE: 70.67 u/L
  BLOOD UREA NITROGEN: 13 mg/dL
  CARBON DIOXIDE: 33 mmol/L
  CHLORIDE: 100.33 MEQ/L
  CHOLESTEROL: 76.67 mg/dL
  CREATININE: 0.12 mg/dL
  LACTATE DEHYDROGENASE: 116.67 u/L
  LIPASE: 8 u/L
  POTASSIUM: 6.33 MEQ/L
  TOTAL BILIRUBIN: 0.18 mg/dL
  TOTAL PROTEIN: 5.77 G/DL
[2]; [9]
  ABSOLUTE EOSINOPHIL: 210.67 CELLS/uL
  ABSOLUTE LYMPHOCYTE: 10744.33 CELLS/uL
  ABSOLUTE MONOCYTE: 466.33 CELLS/uL
  ABSOLUTE SEGMENTED NEUTROPHIL: 1512 CELLS/uL
  BASOPHIL: 0%
  ERYTHROCYTE COUNT: 5.65 x10E6/uL
  HEMATOCRIT: 34.1%
  HEMOGLOBIN: 12.63 G/DL
  LEUKOCYTE COUNT: 12.93 x10E3/uL
  LYMPHOCYTE: 84.67%
  MEAN CORPUSCULAR HEMOGLOBIN: 22.43 pg
  MEAN CORPUSCULAR HEMOGLOBIN CONCENTRATION: 37.1 G/DL
  MEAN CORPUSCULAR VOLUME: 60.37 fL
  MONOCYTE: 3.33%
  NEUTROPHIL: 10.67%
  NUCLEATED RED BLOOD CELLS: 0 /100WBC
  PLATELET COUNT: 1117 x10E3/uL
[2]; [10]
  ALANINE AMINOTRANSFERASE: 52.67 u/L
  ALBUMIN: 4.3 G/DL
  ALKALINE PHOSPHATASE: 366 u/L
  ASPARTATE AMINOTRANSFERASE: 77.67 u/L
  BLOOD UREA NITROGEN: 13 mg/dL
  CARBON DIOXIDE: 26 mmol/L
  CHOLESTEROL: 82.67 mg/dL
  CREATININE: 0.16 mg/dL
  LACTATE DEHYDROGENASE: 175 u/L
  LIPASE: 8 u/L
  PHOSPHORUS: 12.07 mg/dL
  POTASSIUM: 6.17 MEQ/L
  TOTAL BILIRUBIN: 0.17 mg/dL
  TOTAL PROTEIN: 6.23 G/DL
  URIC ACID: 1.7 mg/dL
